Reference: patent US20220125051A1, “PRE-HARVEST DESICCATION METHOD” (SYNGENTA CROP PROTECTION AG, priority 2019, published 2022)
Structures can show the parent of a compound that is named as a salt. Where two headings read alike, the source gives them in different places.

What was measured:
Experiment in all cases: Post-emergence efficacy, Method A
Assay type in all cases: in vivo
[1] = test system: Digitaria sanguinalis (DIGSA); settings: Digitaria sanguinalis, post-emergence, 312 h, evaluated after 13 days
In short: (§1)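 Plants grown 14 days in glasshouse (24/16 °C, 14 h light, 65% humidity) were sprayed with compound formulated in IF50. The spray was diluted in 0.25% or 1% Empicol ESC70 plus 1% ammonium sulphate. Damage was scored 13 days later on a 0-100 scale, where 100 is total damage.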

Setaria faberi (SETFA) = settings: Setaria faberi, post-emergence, 312 h, evaluated after 13 days
In short: as §1

Eleusine indica (ELEIN) = settings: Eleusine indica, post-emergence, 312 h, evaluated after 13 days
In short: as §1

[2] = test system: Amaranthus palmeri (AMAPA); settings: Amaranthus palmeri, post-emergence, 312 h, evaluated after 13 days
In short: as §1

Lolium perenne (LOLPE) = settings: Lolium perenne, post-emergence, 312 h, evaluated after 13 days
In short: as §1

[3] = test system: Chenopodium album (CHEAL); settings: Chenopodium album, post-emergence, 312 h, evaluated after 13 days
In short: as §1

[4] = test system: Ipomoea hederacea (IPOHE); settings: Ipomoea hederacea, post-emergence, 312 h, evaluated after 13 days
In short: as §1

[5] = test system: Euphorbia heterophylla (EPHHL); settings: Euphorbia heterophylla, post-emergence, 312 h, evaluated after 13 days
In short: as §1

[6] = test system: Echinochloa crus-galli (ECHCG); settings: Echinochloa crus-galli, post-emergence, 312 h, evaluated after 13 days
In short: as §1

[7] = Application Rate 500 g/Ha, Method A, read-out: Control of weed species after post-emergence application, DIGSA (100=total damage to plant; 0=no damage to plant)
[8] = Application Rate 500 g/Ha, Method A, read-out: Control of weed species after post-emergence application, SETFA (100=total damage to plant; 0=no damage to plant)
[9] = Application Rate 500 g/Ha, Method A, read-out: Control of weed species after post-emergence application, ELEIN (100=total damage to plant; 0=no damage to plant)
[10] = Application Rate 500 g/Ha, Method A, read-out: Control of weed species after post-emergence application, AMAPA (100=total damage to plant; 0=no damage to plant)
[11] = Application Rate 500 g/Ha, Method A, read-out: Control of weed species after post-emergence application, LOLPE (100=total damage to plant; 0=no damage to plant)
[12] = Application Rate 500 g/Ha, Method A, read-out: Control of weed species after post-emergence application, CHEAL (100=total damage to plant; 0=no damage to plant)
[13] = Application Rate 500 g/Ha, Method A, read-out: Control of weed species after post-emergence application, IPOHE (100=total damage to plant; 0=no damage to plant)
[14] = Application Rate 500 g/Ha, Method A, read-out: Control of weed species after post-emergence application, EPHHL (100=total damage to plant; 0=no damage to plant)
[15] = Application Rate 500 g/Ha, Method A, read-out: Control of weed species after post-emergence application, ECHCG (100=total damage to plant; 0=no damage to plant)
[16] = Application rate 500 g/Ha, 100=total damage to plant, 0=no damage to plant, read-out: Control of weed species after post-emergence application, DIGSA
[17] = Application rate 500 g/Ha, 100=total damage to plant, 0=no damage to plant, read-out: Control of weed species after post-emergence application, SETFA
[18] = Application rate 500 g/Ha, 100=total damage to plant, 0=no damage to plant, read-out: Control of weed species after post-emergence application, ELEIN
[19] = Application rate 500 g/Ha, 100=total damage to plant, 0=no damage to plant, read-out: Control of weed species after post-emergence application, AMAPA
[20] = Application rate 500 g/Ha, 100=total damage to plant, 0=no damage to plant, read-out: Control of weed species after post-emergence application, LOLPE
[21] = Application rate 500 g/Ha, 100=total damage to plant, 0=no damage to plant, read-out: Control of weed species after post-emergence application, CHEAL
[22] = Application rate 500 g/Ha, 100=total damage to plant, 0=no damage to plant, read-out: Control of weed species after post-emergence application, IPOHE
[23] = Application rate 500 g/Ha, 100=total damage to plant, 0=no damage to plant, read-out: Control of weed species after post-emergence application, EPHHL
[24] = Application rate 500 g/Ha, 100=total damage to plant, 0=no damage to plant, read-out: Control of weed species after post-emergence application, ECHCG

Compound | pest or weed control at 500 g/ha [1, 16] [%] | pest or weed control at 500 g/ha (Setaria faberi (SETFA); [17]) [%] | pest or weed control at 500 g/ha (Eleusine indica (ELEIN); [18]) [%] | pest or weed control at 500 g/ha [2, 19] [%] | pest or weed control at 500 g/ha (Lolium perenne (LOLPE); [20]) [%] | pest or weed control at 500 g/ha [3, 21] [%] | pest or weed control at 500 g/ha [4, 22] [%] | pest or weed control at 500 g/ha [5, 23] [%] | pest or weed control at 500 g/ha [6, 24] [%] | other results
O=S(=O)([O-])CCC[n+]1ccc(-c2nccc(CO)n2)cn1 [Compound A154] |  |  |  |  |  |  |  |  |  | pest or weed control at 125 g/ha ([1]; Application Rate 125 g/Ha, Method A, read-out: Control of weed species after post-emergence application, DIGSA (100=total damage to plant; 0=no damage to plant)): 20%; pest or weed control at 125 g/ha (Setaria faberi (SETFA); Application Rate 125 g/Ha, Method A, read-out: Control of weed species after post-emergence application, SETFA (100=total damage to plant; 0=no damage to plant)): 30%; pest or weed control at 125 g/ha (Eleusine indica (ELEIN); Application Rate 125 g/Ha, Method A, read-out: Control of weed species after post-emergence application, ELEIN (100=total damage to plant; 0=no damage to plant)): 10%; pest or weed control at 125 g/ha ([2]; Application Rate 125 g/Ha, Method A, read-out: Control of weed species after post-emergence application, AMAPA (100=total damage to plant; 0=no damage to plant)): 40%; pest or weed control at 125 g/ha (Lolium perenne (LOLPE); Application Rate 125 g/Ha, Method A, read-out: Control of weed species after post-emergence application, LOLPE (100=total damage to plant; 0=no damage to plant)): 10%; pest or weed control at 125 g/ha ([3]; Application Rate 125 g/Ha, Method A, read-out: Control of weed species after post-emergence application, CHEAL (100=total damage to plant; 0=no damage to plant)): 50%; pest or weed control at 125 g/ha ([4]; Application Rate 125 g/Ha, Method A, read-out: Control of weed species after post-emergence application, IPOHE (100=total damage to plant; 0=no damage to plant)): 20%; pest or weed control at 125 g/ha ([5]; Application Rate 125 g/Ha, Method A, read-out: Control of weed species after post-emergence application, EPHHL (100=total damage to plant; 0=no damage to plant)): 70%; pest or weed control at 125 g/ha ([6]; Application Rate 125 g/Ha, Method A, read-out: Control of weed species after post-emergence application, ECHCG (100=total damage to plant; 0=no damage to plant)): 20%
O=C(O)CC[n+]1ccc(-c2ncc(C(F)(F)F)cc2Cl)cn1 [Compound A197] |  |  |  |  |  |  |  |  |  | pest or weed control at 500 g/ha [1, 7]: 20%; pest or weed control at 500 g/ha (Setaria faberi (SETFA); [8]): 0%; pest or weed control at 500 g/ha (Eleusine indica (ELEIN); [9]): 10%; pest or weed control at 500 g/ha [2, 10]: 100%; pest or weed control at 500 g/ha (Lolium perenne (LOLPE); [11]): 0%; pest or weed control at 500 g/ha [3, 12]: 10%; pest or weed control at 500 g/ha [4, 13]: 10%; pest or weed control at 500 g/ha [5, 14]: 10%; pest or weed control at 500 g/ha [6, 15]: 0%
O=S(=O)([O-])CCC[n+]1ccc(-c2cnc(F)cn2)cn1 [Compound A98] | 10 | 20 | 20 | 40 | 0 | 20 | 30 | 40 | 20 | 
O=S(=O)([O-])CCC[n+]1ccc(-c2cncc(Cl)n2)cn1 [Compound A84] | 50 | 50 | 20 | 100 | 30 | 80 | 30 | 90 | 20 | 
O=S(=O)([O-])CC[n+]1ccc(-c2ncc(C(F)(F)F)cn2)cn1 [Compound A24] | 40 | 70 | 40 | 90 | 60 | 70 | 70 | 80 | 60 | 
COc1ccc(-c2cc[n+](CCCS(=O)(=O)[O-])nc2)nn1 [Compound A115] | 30 | 60 | 30 | 100 | 30 | 100 | 40 | 30 | 50 | 
Cc1cnc(-c2cc[n+](CCC(=O)O)nc2)nc1 [Compound A36] | 90 | 100 | 100 | 100 | 80 | 90 | 30 | 90 | 90 | 
Cc1cnc(-c2cc[n+](CCC(=O)O)nc2)c(Cl)c1 [Compound A137] | 40 | 40 | 40 | 60 | 20 | 20 | 10 | 20 | 30 | 
O=S(=O)([O-])OCC[n+]1ccc(-c2ncccn2)cn1 [Compound A194, 2-(4-pyrimidin-2-ylpyridazin-1-ium-1-yl)ethyl sulfate] |  |  |  |  |  |  |  |  |  | pest or weed control at 500 g/ha [1, 7]: 50%; pest or weed control at 500 g/ha (Setaria faberi (SETFA); [8]): 50%; pest or weed control at 500 g/ha (Eleusine indica (ELEIN); [9]): 90%; pest or weed control at 500 g/ha [2, 10]: 100%; pest or weed control at 500 g/ha (Lolium perenne (LOLPE); [11]): 50%; pest or weed control at 500 g/ha [3, 12]: 70%; pest or weed control at 500 g/ha [4, 13]: 60%; pest or weed control at 500 g/ha [5, 14]: 70%; pest or weed control at 500 g/ha [6, 15]: 70%
CC(C)(C[n+]1ccc(-c2ccncn2)cn1)C(=O)O [Compound A167] |  |  |  |  |  |  |  |  |  | pest or weed control at 500 g/ha [1, 7]: 50%; pest or weed control at 500 g/ha (Setaria faberi (SETFA); [8]): 40%; pest or weed control at 500 g/ha (Eleusine indica (ELEIN); [9]): 80%; pest or weed control at 500 g/ha [2, 10]: 20%; pest or weed control at 500 g/ha (Lolium perenne (LOLPE); [11]): 40%; pest or weed control at 500 g/ha [3, 12]: 70%; pest or weed control at 500 g/ha [4, 13]: 100%; pest or weed control at 500 g/ha [5, 14]: 90%; pest or weed control at 500 g/ha [6, 15]: 60%
O=S(=O)([O-])CC[n+]1ccc(-c2ncccc2C(F)(F)F)cn1 [Compound A140] | 10 | 30 | 10 | 60 | 0 | 50 | 20 | 50 | 20 | 
CC(C)OC(=O)CC[n+]1ccc(-c2ncccn2)cn1 [Compound A81, isopropyl 3-(4-pyrimidin-2-ylpyridazin-1-ium-1-yl)propanoate 2,2,2-trifluoroacetate] | 100 | 90 | 80 | 100 | 40 | 90 | 40 | 100 | 90 | 
